Laboratory results published in publication PMC4070431 (Pulmonary pharmacology & therapeutics, 2012).
Where “and” joins values, the source holds several entries; their conditions need not be identical. Identical values can stand only once. Like-named read-outs stand apart in the source and are kept apart here. Positions of bridges follow the written chain, without caps; N, C: chain ends. Non-standard residues stand in square brackets, D forms with d. Residues, ends and D or L forms follow the SMILES beside them. *: point of attachment. X1 = N=C(N)NCCC[C@H]1C(=O)N[C@H](C(N)=O)CN1*; dNle = CCCC[C@@H](N)C(=O)O; Heptanoyl = CCCCCCC(=O)*

Columns and labels:
[1] = cited from earlier work
human NPR-B = biological target: T1, human NPR-B (Homo sapiens, UniProt P20594); test: cGMP generation in HEK293 cells expressing receptor; format: cell-based; conditions: for Effect on cGMP generation in hNPR-B functional assay: concentrations up to 10 µM; for Emax, cGMP generation, hNPR-B: mean ± SEM
T1 sequence (P20594 23-1047): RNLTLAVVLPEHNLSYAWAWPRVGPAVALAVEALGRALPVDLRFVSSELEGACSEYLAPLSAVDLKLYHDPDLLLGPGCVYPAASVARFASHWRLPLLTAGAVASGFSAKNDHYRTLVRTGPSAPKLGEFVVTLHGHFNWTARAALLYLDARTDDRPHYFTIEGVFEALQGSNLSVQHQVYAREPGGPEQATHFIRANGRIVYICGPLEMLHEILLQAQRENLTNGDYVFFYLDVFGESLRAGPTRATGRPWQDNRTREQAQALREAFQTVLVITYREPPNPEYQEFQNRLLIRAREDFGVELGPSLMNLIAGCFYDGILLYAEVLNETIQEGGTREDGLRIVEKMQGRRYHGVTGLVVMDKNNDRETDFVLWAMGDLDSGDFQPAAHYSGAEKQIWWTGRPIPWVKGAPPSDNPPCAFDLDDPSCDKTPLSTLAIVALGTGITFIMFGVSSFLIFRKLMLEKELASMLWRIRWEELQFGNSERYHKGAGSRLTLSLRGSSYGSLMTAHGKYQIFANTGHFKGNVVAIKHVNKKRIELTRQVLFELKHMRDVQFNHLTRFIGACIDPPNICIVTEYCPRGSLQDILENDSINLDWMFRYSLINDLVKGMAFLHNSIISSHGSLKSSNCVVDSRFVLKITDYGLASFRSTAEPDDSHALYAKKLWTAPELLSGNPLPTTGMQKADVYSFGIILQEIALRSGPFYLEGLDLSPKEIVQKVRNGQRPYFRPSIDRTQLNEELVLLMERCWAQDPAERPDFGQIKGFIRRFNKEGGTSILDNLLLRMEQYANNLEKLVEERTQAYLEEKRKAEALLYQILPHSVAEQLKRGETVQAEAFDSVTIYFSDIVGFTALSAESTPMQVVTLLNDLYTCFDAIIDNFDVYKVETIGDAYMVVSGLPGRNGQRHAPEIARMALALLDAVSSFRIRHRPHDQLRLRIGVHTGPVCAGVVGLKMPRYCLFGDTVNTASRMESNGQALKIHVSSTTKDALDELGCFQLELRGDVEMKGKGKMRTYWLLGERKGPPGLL

[2] = system: 75 diverse molecular targets; test: CEREP standard profiling screen; format: binding; conditions: 1 µM
kappa opioid receptor = test: CEREP profiling screen and follow-up Ki; format: binding; conditions: read-out: Ki, kappa; follow-up study
[3] = biological target: non-selective somatostatin receptor (sst); test: CEREP profiling screen and follow-up Ki; format: binding; conditions: read-out: Ki, sst; follow-up study
[4] = system: bronchoconstrictor response to aerosolized methacholine; test: Methacholine-induced bronchoconstriction in anaesthetized guinea pigs; format: in vivo, guinea pig; conditions: for Maximum inhibition of methacholine bronchoconstrictor response: 1000 µg/kg i.t., 15-min pretreatment, n = 6, mean ± SEM; for Inhibition of methacholine bronchoconstriction at 60 min: i.t., 60-min pretreatment, all doses
[5] = system: mean arterial blood pressure and heart rate; test: Cardiovascular parameters in anaesthetized guinea pigs; conditions: i.t.; PL-3994 1–1000 µg/kg, salbutamol 1000 µg/kg; n = 6
rat trachea = test: Relaxation of carbachol-precontracted rat trachea; conditions: 100 µM; carbachol 1 µM; n = 6; mean ± SEM

SMILES | Effect on cGMP generation in hNPR-B functional assay (human NPR-B) | Maximum inhibition of methacholine bronchoconstrictor response [4] | Inhibition of methacholine bronchoconstriction at 60 min [4] | Effect on heart rate compared to baseline [5] | Effect on mean arterial blood pressure compared to baseline [5] | Emax, cGMP generation, hNPR-B (human NPR-B) [% hCNP] | further results
CC[C@H](C)[C@@H]1NC(=O)[C@H](CCCNC(=N)N)NC(=O)[C@H](CC(=O)O)NC(=O)[C@H](CC(C)C)NC(=O)[C@H](CCCCN)NC(=O)[C@H](CC(C)C)NC(=O)CNC(=O)[C@H](Cc2ccccc2)NC(=O)[C@@H](NC(=O)CNC(=O)[C@H](CCCCN)NC(=O)[C@H](CO)NC(=O)[C@H](CC(C)C)NC(=O)CN)CSSC[C@@H](C(=O)O)NC(=O)CNC(=O)[C@H](CC(C)C)NC(=O)CNC(=O)[C@H](CO)NC(=O)[C@H](CCSC)NC(=O)[C@H](CO)NC(=O)CNC1=O [CNP, C-type natriuretic peptide] | – | – | – | – | – | – | Human plasma half-life ([1]; ref [10]): about 2 min
CCCCCCC(=O)N[C@H]1CSSC[C@@H](C(=O)N[C@@H](Cc2ccc(O)cc2)C(=O)N2C[C@@H](C(N)=O)NC(=O)[C@@H]2CCCNC(=N)N)NC(=O)[C@H](CO)NC(=O)[C@H]([C@@H](C)CC)NC(=O)[C@H](CCCNC(=N)N)NC(=O)[C@H](CC(=O)O)NC(=O)[C@@H](CCCC)NC(=O)[C@H](CCCNC(=N)N)NC(=O)CNC(=O)[C@@H](C)NC(=O)[C@H](Cc2ccccc2)NC(=O)[C@H](Cc2c[nH]cn2)NC1=O [PL-3994, Hept-cyclo(Cys-His-Phe-D-Ala-Gly-Arg-D-Nle-Asp-Arg-Ile-Ser-Cys)-Tyr-[Arg-mimetic]-NH2] (Heptanoyl-CHF[dA]GR[dNle]DRISCY-X1; disulfide 1-12) | without effect | 70% | maintained | no significant effect | no significant effect | – | EC50, cGMP generation, hNPR-B (human NPR-B; HEK293 cells, 0.5 mM IBMX, 15 min, cGMP HTRF): Not calculable; Effect against 75 diverse molecular targets [2]: without significant effect; Ki (kappa opioid receptor): 880 nM; Ki [3]: 4200 nM; Inhibition of methacholine bronchoconstriction at 120 min ([4]; 10 µg/kg and 100 µg/kg i.t.): extended to 120 min post-administration, although it was reduced; Inhibition of methacholine bronchoconstriction at 240 min ([4]; 10 µg/kg and 100 µg/kg i.t., 240-min pretreatment): absent
CC[C@H](C)[C@@H]1NC(=O)[C@H](CCCNC(=N)N)NC(=O)[C@H](CC(=O)O)NC(=O)[C@H](CCSC)NC(=O)[C@H](CCCNC(=N)N)NC(=O)CNC(=O)CNC(=O)[C@H](Cc2ccccc2)NC(=O)[C@@H](NC(=O)[C@H](CO)NC(=O)[C@H](CO)NC(=O)[C@H](CCCNC(=N)N)NC(=O)[C@H](CCCNC(=N)N)NC(=O)[C@H](CC(C)C)NC(=O)[C@@H](N)CO)CSSC[C@@H](C(=O)N[C@@H](CC(N)=O)C(=O)N[C@@H](CO)C(=O)N[C@@H](Cc2ccccc2)C(=O)N[C@@H](CCCNC(=N)N)C(=O)N[C@@H](Cc2ccc(O)cc2)C(=O)O)NC(=O)CNC(=O)[C@H](CC(C)C)NC(=O)CNC(=O)[C@H](CO)NC(=O)[C@H](CCC(N)=O)NC(=O)[C@H](C)NC(=O)CNC1=O [hANP, atrial natriuretic peptide] | – | – | – | – | – | 6 ± 0.8 | Human plasma half-life ([1]; human, in vivo): about 2 min
CC[C@H](C)[C@@H]1NC(=O)[C@H](CCCNC(=N)N)NC(=O)[C@H](CC(=O)O)NC(=O)[C@H](CCSC)NC(=O)[C@H](CCCCN)NC(=O)[C@H](CCCNC(=N)N)NC(=O)CNC(=O)[C@H](Cc2ccccc2)NC(=O)[C@@H](NC(=O)CNC(=O)[C@H](CO)NC(=O)CNC(=O)[C@H](CCC(N)=O)NC(=O)[C@@H](NC(=O)[C@H](CCSC)NC(=O)[C@H](CCCCN)NC(=O)[C@@H]2CCCN2C(=O)[C@@H](N)CO)C(C)C)CSSC[C@@H](C(=O)N[C@@H](CCCCN)C(=O)N[C@H](C(=O)N[C@@H](CC(C)C)C(=O)N[C@@H](CCCNC(=N)N)C(=O)N[C@@H](CCCNC(=N)N)C(=O)N[C@@H](Cc2c[nH]cn2)C(=O)O)C(C)C)NC(=O)CNC(=O)[C@H](CC(C)C)NC(=O)CNC(=O)[C@H](CO)NC(=O)[C@H](CO)NC(=O)[C@H](CO)NC(=O)[C@H](CO)NC1=O [hBNP, brain natriuretic peptide] | no functional activity | – | – | – | – | 9 ± 1 | –
CC(C)(C)NCC(O)c1ccc(O)c(CO)c1 (stereo not drawn) [salbutamol] | – | 87 ± 2% and 87% | maintained | no significant effect | no significant effect | – | Relaxation of carbachol-precontracted rat trachea (rat trachea): 70.0 ± 10.4 % relaxation
